Measured values reported in PubChem BioAssay (NCI).
Where “and” joins values, the source holds several entries; their conditions need not be identical. Identical values can stand only once.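 96-well plates; 48 h exposure; 5 concentrations. Endpoints by linear interpolation between flanking doses. Not reached: highest tested concentration assigned. At the GI50, growth is halved. Definition used: TGI = concentration required for complete inhibition of growth.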

Assays:
Experiment in all cases: NCI-60 cell line screen, 48 h
SK-MEL-2 melanoma = test system: SK-MEL-2 melanoma
HOP-92 NSCLC = test system: HOP-92 NSCLC
RXF 393 renal = test system: RXF 393 renal
SN12C renal = test system: SN12C renal
CAKI-1 renal = test system: CAKI-1 renal
M14 melanoma = test system: M14 melanoma
NCI-H522 lung = test system: NCI-H522 lung
OVCAR-5 ovarian = test system: OVCAR-5 ovarian
OVCAR-3 ovarian = test system: OVCAR-3 ovarian
NCI-H226 lung = test system: NCI-H226 lung

| SMILES | GI50 (SK-MEL-2 melanoma) | TGI (SK-MEL-2 melanoma) | GI50 (HOP-92 NSCLC) | TGI (HOP-92 NSCLC) | GI50 (RXF 393 renal) | TGI (RXF 393 renal) | GI50 (SN12C renal) | TGI (SN12C renal) | GI50 (CAKI-1 renal) | TGI (CAKI-1 renal) | GI50 (M14 melanoma) | TGI (M14 melanoma) | GI50 (NCI-H522 lung) | TGI (NCI-H522 lung) | GI50 (OVCAR-5 ovarian) | TGI (OVCAR-5 ovarian) | GI50 (OVCAR-3 ovarian) | TGI (OVCAR-3 ovarian) | GI50 (NCI-H226 lung) | TGI (NCI-H226 lung) |
| --- | --- | --- | --- | --- | --- | --- | --- | --- | --- | --- | --- | --- | --- | --- | --- | --- | --- | --- | --- | --- |
| CCOc1ccc(Cc2nccc3cc(OCC)c(OCC)cc23)cc1OCC | 11.7 µM | 26.1 µM | 0.29 µM | 8.94 µM | 10.4 µM | 23.1 µM | 4.08 µM | 22.3 µM | 4.53 µM | 41 µM | 9.41 µM | 23.5 µM | 2.09 µM | 15 µM | 4.58 µM | 22 µM | 10.5 µM | 23.6 µM | 6 µM | 23.8 µM |
| COc1cc2c(cc1OC)C(CCc1ccc(Cl)cc1)N(C)CC2 (stereo unspecified) | 19.7 µM | 37.1 µM | 13.6 µM | 92.7 µM | 17.8 µM | 58.3 µM | 39.9 µM | > 100 µM | 10.7 µM | 31.7 µM | 17.3 µM | 37.7 µM | 20 µM | 38.6 µM | 19.6 µM | 61.7 µM | 33.3 µM | > 100 µM | 58.6 µM | > 100 µM |
| CC1=C(N2CC2)C(=O)C(CO)=C(N2CC2)C1=O | – | 0.0988 µM and 0.585 µM | 0.0183 µM and 0.018 µM | 0.247 µM and 0.28 µM | – | 0.0946 µM | 0.0057 µM | 0.0367 µM and 0.139 µM | 0.00256 µM | 0.412 µM and 0.243 µM | 0.0162 µM | 0.119 µM and 0.0522 µM | 0.0112 µM | 0.0385 µM and 0.0489 µM | 0.194 µM | 0.74 µM | 0.0377 µM | 0.557 µM and 0.0564 µM | – | 0.166 µM |
| Nc1nc(-c2ccccc2)c(-c2ccccc2)c(-c2nc(N)nc(-c3ccccc3)c2-c2ccccc2)n1 | – | > 100 µM | – | > 100 µM | – | > 100 µM | – | > 100 µM | – | > 100 µM | – | > 100 µM | – | > 100 µM | – | > 100 µM | – | > 100 µM | – | > 100 µM |
| CC(=O)NNc1nc(C)c(C(=O)NNC(=O)C(=O)Nc2ccc(C)c(C)c2)s1 | – | > 100 µM | – | > 100 µM | – | > 100 µM | – | > 100 µM | – | > 100 µM | – | > 100 µM | – | 46.3 µM | – | > 100 µM | – | 81.1 µM | – | > 100 µM |
| O=C(Oc1cccnc1)c1ccccc1Nc1ccnc(C(F)(F)F)c1 | 20.2 µM | > 100 µM | 6.64 µM | > 100 µM | 0.473 µM | 13.5 µM | 0.17 µM | > 94.8 µM | 0.0525 µM | 46.9 µM | 0.0536 µM | 3.11 µM | 0.402 µM | > 100 µM | 0.63 µM | > 95.9 µM | 0.141 µM | 0.453 µM | 0.552 µM | 29.3 µM |
| N#Cc1ccc(Oc2nccc(-c3c(-c4ccc(F)cc4)ncn3C3CCNCC3)n2)cc1 | > 25 µM | > 25 µM | 4.04 µM | > 25 µM | 20.3 µM | > 25 µM | > 25 µM | > 25 µM | > 25 µM | > 25 µM | > 16.4 µM | > 25 µM | > 11.9 µM | > 15.6 µM | > 25 µM | > 25 µM | > 25 µM | > 25 µM | > 25 µM | > 25 µM |
| CCN1CCN(CCOc2ccc(CNc3ccc4nc(CCC5CCCCC5)[nH]c4c3)cc2)CC1 | 1.92 µM | 3.77 µM | 0.925 µM | 3.09 µM | 1.3 µM | 3.31 µM | 2.72 µM | 11 µM | 2.01 µM | 4.11 µM | 1.68 µM | 3.29 µM | 2.44 µM | 5.95 µM | 2.33 µM | 7.18 µM | 1.89 µM | 4.34 µM | 1.99 µM | 4.94 µM |
| C=CCN1C(=O)/C(=c2\sc3n(c2=O)C2C(NN=3)N(CC)C(=O)N2CC)c2ccccc21 (stereo unspecified) | 2.17 µM | > 38.7 µM | 0.842 µM | 9.2 µM | 0.328 µM | 1.94 µM | 0.7 µM | > 100 µM | 0.474 µM | > 100 µM | 0.446 µM | > 100 µM | 0.379 µM | – | 1.55 µM | > 100 µM | 0.377 µM | 2.35 µM | 2.19 µM | > 100 µM |
| CCCCCCCCCCCCCCCCOC(=O)C(C(=O)OCCCCCCCCCCCCCCCC)[N+](C)(C)CCOC(C)=O | – | 36.8 µM | – | 18.5 µM | – | 8.98 µM | – | 35.3 µM | – | 30.9 µM | – | 38.5 µM | – | 23.3 µM | – | 35.1 µM | – | 32.6 µM | – | 42.1 µM |
| Cc1ccc(-n2c3c(c4c(CN5CCCCC5)c(O)ccc42)CCc2ccccc2C3=O)cc1 | > 100 µM | > 100 µM | 20 µM | 88.2 µM | 24.7 µM | > 100 µM | > 100 µM | > 100 µM | > 100 µM | > 100 µM | > 100 µM | > 100 µM | > 100 µM | > 100 µM | > 100 µM | > 100 µM | > 100 µM | > 100 µM | > 100 µM | > 100 µM |
| CCc1cccc(C(C)CC)c1N=C(NC(=O)c1ccccc1C(=O)NC(=Nc1c(CC)cccc1C(C)CC)SC)SC (stereo unspecified) | – | > 100 µM | – | 39.2 µM | – | > 100 µM | – | > 100 µM | – | > 100 µM | – | 44.5 µM | – | 64.4 µM | – | > 100 µM | – | > 100 µM | – | 57.1 µM |
| Nc1nnc2nc(CC(=O)/C=C/c3ccccc3)c(=O)[nH]n12 | – | > 100 µM | – | > 100 µM | – | > 100 µM | – | > 100 µM | – | > 100 µM | – | > 100 µM | – | > 100 µM | – | > 100 µM | – | > 100 µM | – | > 100 µM |
| COc1c(OC(C)=O)cc2c(OC(C)=O)c1CC(C)CC(OC)C(O)C(C)/C=C(\C)C(OC(N)=O)C(OC)/C=C\C=C(/C)C(=O)N2 (stereo unspecified) | – | > 100 µM | – | > 100 µM | – | > 100 µM | – | > 100 µM | – | > 100 µM | – | > 100 µM | – | > 41.5 µM | – | > 100 µM | – | > 100 µM | – | > 100 µM |
